Measurements: patent publication US7964531B2, “3-phenoxy-4-pyridazinol derivatives and herbicidal composition containing the same” (Mitsui Chemicals Agro, Inc., priority 2001, dated 2011)

How the values were obtained:
Assay type in all cases: in vivo
[1] = tested on: transplanted paddy-field rice; assay: Test Example 4: crop injury against transplanted paddy-field rice; settings: after 25 days
Procedure: (§1) Paddy filed soil was filled in 1/5000 are Wagner pot, seeds of barnyardgrass (Echinochloa oryzicola Vasing.), Scirpus joncoides and annual broad-leaved weeds (Lindernia spp. and Rotala indica) which are awaken from dormancy were mixed at the surface layer of 1 cm. Also, tubers of Cyperus serotinus, Sagittaria pygmaea and Eleocharis kuroguwai which are awaken from dormancy were planted, and further seedlings of paddy-field rice at 2.2-leaf stage were transplanted and they were grown under the flooded condition in a greenhouse. After 3 days from the transplanting, a predetermined chemical dosage of the wettable powder prepared in accordance with Preparation example 5 was diluted with water, and applied to the pot. After 25 days, herbicidal effects and crop injury against transplanted paddy-field rice were judged according to the following judgment standard, and the results were shown in Table 5. Incidentally, “-” in the table means a composition containing no effective ingredient.
(§2) Judgment Standard • 0: Growth-inhibition rate; 0 to 15% • 1: Growth inhibition rate; 16 to 35% • 2: Growth inhibition rate; 36 to 55% • 3: Growth inhibition rate; 56 to 75% • 4: Growth inhibition rate; […] • 5: Growth inhibition rate; 96 to 100%.

Cyperus serotinus [2] = assay: Test Example 4: herbicidal effects of mixed wettable powder, paddy-field pot test; settings: after 25 days
Procedure: as §1, §2

Sagittaria pygmaea = assay: as above; settings: after 25 days
Procedure: as §1, §2

Eleocharis kuroguwai = assay: as above; settings: after 25 days
Procedure: as §1, §2

[3] = tested on: barnyardgrass (Echinochloa oryzicola Vasing.); assay: as above; settings: after 25 days
Procedure: as §1, §2

[4] = tested on: annual broad-leaved weeds (Lindernia spp. and Rotala indica); assay: as above; settings: after 25 days
Procedure: as §1, §2

Scirpus joncoides [5] = assay: as above; settings: after 25 days
Procedure: as §1, §2

[6] = tested on: transplanted paddy-field rice; assay: Test Example 1: crop injury against transplanted paddy-field rice; settings: wettable powder applied 3 days after transplanting, judged after 25 days
Outline: (§3)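 Paddy soil pots sown with dormancy-broken weed seeds mixed into the top 1 cm, plus germinated Cyperus serotinus tubers and transplanted 2.2-leaf rice seedlings, grown flooded in a greenhouse. Water-diluted wettable powder applied 3 days after transplanting; growth inhibition scored 25 days later on a 0–5 scale (0 = 0–10%, 5 = 91–100%).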

Cyperus serotinus [7] = assay: Test Example 1: herbicidal effects, paddy-field pot test; settings: wettable powder applied 3 days after transplanting, judged after 25 days
Outline: as §3

[8] = tested on: barnyardgrass (Echinochloa oryzicola Vasing.); assay: as above; settings: wettable powder applied 3 days after transplanting, judged after 25 days
Outline: as §3

[9] = tested on: annual broad-leaved weeds (Lindernia spp., Rotala indica); assay: as above; settings: wettable powder applied 3 days after transplanting, judged after 25 days
Outline: as §3

Scirpus joncoides [10] = assay: as above; settings: wettable powder applied 3 days after transplanting, judged after 25 days
Outline: as §3

Structure (SMILES) | Crop injury against transplanted rice ([1]; second compound alone 5 g/a) | Crop injury against transplanted rice ([1]; second compound alone 30 g/a) | Herbicidal effects Cyperus serotinus (Cyperus serotinus [2]; second compound alone 5 g/a) | Herbicidal effects Cyperus serotinus (Cyperus serotinus [2]; second compound alone 30 g/a) | Herbicidal effects Sagittaria pygmaea (Sagittaria pygmaea; second compound alone 5 g/a) | Herbicidal effects Sagittaria pygmaea (Sagittaria pygmaea; second compound alone 30 g/a) | Herbicidal effects Eleocharis kuroguwai (Eleocharis kuroguwai; second compound alone 5 g/a) | Herbicidal effects Eleocharis kuroguwai (Eleocharis kuroguwai; second compound alone 30 g/a) | Herbicidal effects Barnyard grass ([3]; second compound alone 5 g/a) | Herbicidal effects Barnyard grass ([3]; second compound alone 30 g/a) | Crop injury against transplanted rice ([6]; chemical dosage 10 g/a) | Crop injury against transplanted rice ([6]; chemical dosage 20 g/a) | Herbicidal effects Cyperus serotinus (Cyperus serotinus [7]; chemical dosage 10 g/a) | Herbicidal effects Cyperus serotinus (Cyperus serotinus [7]; chemical dosage 20 g/a) | Herbicidal effects Barnyard grass ([8]; chemical dosage 10 g/a) | Herbicidal effects Barnyard grass ([8]; chemical dosage 20 g/a) | Herbicidal effects Broad leaf ([9]; chemical dosage 10 g/a) | Herbicidal effects Broad leaf ([9]; chemical dosage 20 g/a) | Herbicidal effects Scirpus joncoides (Scirpus joncoides [10]; chemical dosage 10 g/a) | Herbicidal effects Scirpus joncoides (Scirpus joncoides [10]; chemical dosage 20 g/a) | other results
Cc1ccc(S(=O)(=O)Oc2c(C(=O)c3ccc(Cl)cc3Cl)c(C)nn2C)cc1 [Compound A, 4-(2,4-dichlorobenzoyl)-1,3-dimethyl-5-pyrazolyl-p-toluenesulfonate, reference compound] | 0 (Growth-inhibition rate; 0 to 15%) | 0 (Growth-inhibition rate; 0 to 15%) | 2 (Growth inhibition rate; 36 to 55%) | 4 (Growth inhibition rate; 7.6 to 95%) | 4 (Growth inhibition rate; 7.6 to 95%) | 5 (Growth inhibition rate; 96 to 100%) | 0 (Growth-inhibition rate; 0 to 15%) | 2 (Growth inhibition rate; 36 to 55%) | 3 (Growth inhibition rate; 56 to 75%) | 5 (Growth inhibition rate; 96 to 100%) |  |  |  |  |  |  |  |  |  |  | Herbicidal effects Broad leaf ([4]; second compound alone 5 g/a): 4 (Growth inhibition rate; 7.6 to 95%); Herbicidal effects Broad leaf ([4]; second compound alone 30 g/a): 5 (Growth inhibition rate; 96 to 100%); Herbicidal effects Scirpus joncoides (Scirpus joncoides [5]; second compound alone 5 g/a): 3 (Growth inhibition rate; 56 to 75%); Herbicidal effects Scirpus joncoides (Scirpus joncoides [5]; second compound alone 30 g/a): 4 (Growth inhibition rate; 7.6 to 95%)
Cc1nn(C)c(OCC(=O)c2ccccc2)c1C(=O)c1ccc(Cl)cc1Cl [Compound B, 2-[4-(2,4-dichlorobenzoyl)-1,3-dimethylpyrazol-5-yloxy]acetophenone, reference compound] | 0 (Growth-inhibition rate; 0 to 15%) | 0 (Growth-inhibition rate; 0 to 15%) | 2 (Growth inhibition rate; 36 to 55%) | 4 (Growth inhibition rate; 7.6 to 95%) | 4 (Growth inhibition rate; 7.6 to 95%) | 5 (Growth inhibition rate; 96 to 100%) | 0 (Growth-inhibition rate; 0 to 15%) | 2 (Growth inhibition rate; 36 to 55%) | 3 (Growth inhibition rate; 56 to 75%) | 5 (Growth inhibition rate; 96 to 100%) |  |  |  |  |  |  |  |  |  |  | Herbicidal effects Broad leaf ([4]; second compound alone 5 g/a): 4 (Growth inhibition rate; 7.6 to 95%); Herbicidal effects Broad leaf ([4]; second compound alone 30 g/a): 5 (Growth inhibition rate; 96 to 100%); Herbicidal effects Scirpus joncoides (Scirpus joncoides [5]; second compound alone 5 g/a): 3 (Growth inhibition rate; 56 to 75%); Herbicidal effects Scirpus joncoides (Scirpus joncoides [5]; second compound alone 30 g/a): 4 (Growth inhibition rate; 7.6 to 95%)
Cc1ccc(C(=O)COc2c(C(=O)c3c(Cl)ccc(C)c3Cl)c(C)nn2C)cc1 [Compound C, 2-[4-(2,4-dichloro-m-toluoyl)-1,3-dimethylpyrazol-5-yloxy]-4′-methyl-acetophenone, reference compound] | 0 (Growth-inhibition rate; 0 to 15%) | 0 (Growth-inhibition rate; 0 to 15%) | 1 (Growth inhibition rate; 16 to 35%) | 4 (Growth inhibition rate; 7.6 to 95%) | 4 (Growth inhibition rate; 7.6 to 95%) | 5 (Growth inhibition rate; 96 to 100%) | 0 (Growth-inhibition rate; 0 to 15%) | 2 (Growth inhibition rate; 36 to 55%) | 3 (Growth inhibition rate; 56 to 75%) | 5 (Growth inhibition rate; 96 to 100%) |  |  |  |  |  |  |  |  |  |  | Herbicidal effects Broad leaf ([4]; second compound alone 5 g/a): 5 (Growth inhibition rate; 96 to 100%); Herbicidal effects Broad leaf ([4]; second compound alone 30 g/a): 5 (Growth inhibition rate; 96 to 100%); Herbicidal effects Scirpus joncoides (Scirpus joncoides [5]; second compound alone 5 g/a): 2 (Growth inhibition rate; 36 to 55%); Herbicidal effects Scirpus joncoides (Scirpus joncoides [5]; second compound alone 30 g/a): 4 (Growth inhibition rate; 7.6 to 95%)
O=S(=O)(Oc1cc(Cl)nnc1Oc1ccccc1C1CC1)C(F)(F)F [Example 26] |  |  |  |  |  |  |  |  |  |  | 0 (Growth inhibition rate; 0 to 10%) | 0 (Growth inhibition rate; 0 to 10%) | 5 (Growth inhibition rate; 91 to 100%) | 5 (Growth inhibition rate; 91 to 100%) | 4 (Growth inhibition rate; 71 to 90%) | 4 (Growth inhibition rate; 71 to 90%) | 5 (Growth inhibition rate; 91 to 100%) | 5 (Growth inhibition rate; 91 to 100%) | 5 (Growth inhibition rate; 91 to 100%) | 5 (Growth inhibition rate; 91 to 100%) | 
COc1cccc(C2CC2)c1Oc1nnc(Cl)cc1O [Example 276] |  |  |  |  |  |  |  |  |  |  | 0 (Growth inhibition rate; 0 to 10%) | 0 (Growth inhibition rate; 0 to 10%) | 5 (Growth inhibition rate; 91 to 100%) | 5 (Growth inhibition rate; 91 to 100%) | 3 (Growth inhibition rate; 51 to 70%) | 4 (Growth inhibition rate; 71 to 90%) | 5 (Growth inhibition rate; 91 to 100%) | 5 (Growth inhibition rate; 91 to 100%) | 3 (Growth inhibition rate; 51 to 70%) | 4 (Growth inhibition rate; 71 to 90%) | 
Cc1cccc(Oc2nnc(Cl)cc2O)c1C1CC1 [Example 166] |  |  |  |  |  |  |  |  |  |  | 0 (Growth inhibition rate; 0 to 10%) | 0 (Growth inhibition rate; 0 to 10%) | 5 (Growth inhibition rate; 91 to 100%) | 5 (Growth inhibition rate; 91 to 100%) | 0 (Growth inhibition rate; 0 to 10%) | 1 (Growth inhibition rate; 11 to 30%) | 5 (Growth inhibition rate; 91 to 100%) | 5 (Growth inhibition rate; 91 to 100%) | 5 (Growth inhibition rate; 91 to 100%) | 5 (Growth inhibition rate; 91 to 100%) | 
Oc1cc(Cl)nnc1Oc1cccc2c1CCO2 [Example 181] |  |  |  |  |  |  |  |  |  |  | 0 (Growth inhibition rate; 0 to 10%) | 0 (Growth inhibition rate; 0 to 10%) | 4 (Growth inhibition rate; 71 to 90%) | 5 (Growth inhibition rate; 91 to 100%) | 1 (Growth inhibition rate; 11 to 30%) | 2 (Growth inhibition rate; 31 to 50%) | 5 (Growth inhibition rate; 91 to 100%) | 5 (Growth inhibition rate; 91 to 100%) | 3 (Growth inhibition rate; 51 to 70%) | 4 (Growth inhibition rate; 71 to 90%) | 
Cc1ccc(C2CC2)c(Oc2nnc(Cl)cc2O)c1C [Example 296] |  |  |  |  |  |  |  |  |  |  | 0 (Growth inhibition rate; 0 to 10%) | 0 (Growth inhibition rate; 0 to 10%) | 5 (Growth inhibition rate; 91 to 100%) | 5 (Growth inhibition rate; 91 to 100%) | 1 (Growth inhibition rate; 11 to 30%) | 2 (Growth inhibition rate; 31 to 50%) | 5 (Growth inhibition rate; 91 to 100%) | 5 (Growth inhibition rate; 91 to 100%) | 5 (Growth inhibition rate; 91 to 100%) | 5 (Growth inhibition rate; 91 to 100%) | 
